Laboratory results taken from patent publication US8003360B2, “Debaryomyces castellii phytase” (Adisseo France S.A.S., priority 2005, dated 2011).
“Also recorded” adds a separate entry of the source. Read-outs that look alike come from different tables or passages of the source.

How the values were obtained:
D. castellii phytase [1] = experiment: Substrate specificity, phosphate release kinetics (Table 6A); assay type: biochemical, Debaryomyces castellii; conditions: 250 mM sodium acetate buffer, 1 mM CaCl2, pH 4, 37° C.
Description: The reaction is triggered by the addition of the enzymatic extract (1 volume). The reaction is stopped by acidification of the medium with 20% trichloroacetic acid (1 volume of reaction medium+1 volume of acid). The amount of phosphate released is determined after various incubation times.

D. castellii phytase [2] = experiment: Influence of effectors on phytase activity; assay type: biochemical, Debaryomyces castellii; conditions: for inhibition of phytase activity: concentrations see Table 3
[3] = molecular target: T1, Debaryomyces castellii CBS 2923 phytase, native (wild type), SEQ ID No. 2 (Schwanniomyces capriottii, UniProt A2TBB4); experiment: Influence of effectors on the phytase activity; assay type: biochemical; conditions: for effect on the phytase activity (in words): Table 3
Description: (§1) The amount of phosphate released is measured by colorimetery. The visualizing solution, prepared extemporaneously, contains iron sulphate (380 mM, 1 volume) and ammonium heptamolybdate (12 mM, 4 volumes). The absorbance at 700 nm is measured after 30 minutes of visualization at ambient temperature (1 volume of reaction medium+1 volume of visualizing solution), using a UV/visible spectrophotometer (Beckman DU 530).

[4] = system: Debaryomyces castellii CBS2923 phytase; experiment: Influence of the environment (additives, calcium, buffer molarity) on thermostability of the phytase; assay type: physicochemical
Description: At the end of treatment, the extract is cooled in water at +4° C. […] Three types of elements are tested: • sugars or sugar alcohol: sucrose, lactose, trehalose, arabinose, glycerol, • the absence of calcium, • the molarity of the buffer. […] At the end of treatment, the extract is cooled in water to +4° C. […] Materials and Methods).

[5] = system: Schwanniomyces occidentalis phytase; conditions: Segueilha et al., 1992; cited from earlier work
D. castellii phytase [6] = experiment: Hydrolysis of various inositol phosphates (Table 6B); assay type: biochemical, Debaryomyces castellii; conditions: hydrolysis 30 minutes at 37° C., pH 4
D. castellii phytase [7] = experiment: Kinetic constants of the native phytase on substrates; assay type: biochemical, Debaryomyces castellii; conditions: +37° C., pH 4 with sodium phytate, pH 5.5 with p-NPP
Description: (§2) The effect of pH on the phytase activity is determined using the following buffer solutions: 200 mM glycine-HCl, pH 2-3.5; 200 mM sodium acetate-acetic acid, pH 3.5-7; and 200 mM tris-HCl, pH 7-9. The reactions are carried out at +37° C. using the phytate as substrate. The optimum temperature is determined by varying the temperature from +30° C. to +80° C. […] After the heat treatment, the mixture is cooled in ice and the phytase activity is determined using the phytate as substrate.
(§3) The kinetic constants are determined on 2 substrates.

[8] = molecular target: recombinant Debaryomyces castellii CBS 2923 phytase (recPhyt, expressed in Pichia pastoris), SEQ ID No. 2 (Schwanniomyces capriottii, UniProt A2TBB4)
[9] = molecular target: T1, Debaryomyces castellii CBS 2923 phytase, native (wild type), SEQ ID No. 2; experiment: Kinetic constants (specificity study) of the native phytase; assay type: biochemical; conditions: native enzyme
Description: as §2, §1, §3

recombinant phytase = experiment: Kinetic constants of the recombinant phytase on substrates; assay type: biochemical, Debaryomyces castellii; conditions: Lineweaver-Burk representation
[10] = substrate: O=P(O)(O)O[C@H]1[C@H](OP(=O)(O)O)[C@@H](OP(=O)(O)O)[C@H](OP(=O)(O)O)[C@@H](OP(=O)(O)O)[C@H]1OP(=O)(O)O; experiment: purified protein, by the assay type
[11] = additive 10% in 250 mM acetate buffer pH 4, 1 mM calcium
[12] = effector 5 mM, phytate control = 100
[13] = CaCl2 0 mM (absence of calcium), 250 mM acetate buffer pH 4
[14] = other: native enzyme, 37° C., pH 4 for sodium phytate, pH 5.5 for p-NPP

## O=P(O)(O)OCC(O)CO (stereo in doubt) [L-α-glycerophosphate]
D. castellii phytase [1]; substrate 4 mM
  % activity: 78%

## OCCS [2-mercaptoethanol]
D. castellii phytase [2]; inhibitors tested, see Table 3
  effect on phytase activity: absence of effect
[3]; effector 3 mM, phytate control 9 mM = 100
  % activity: 107%

## Nc1ncnc2c1ncn2[C@@H]1O[C@H](COP(=O)(O)OP(=O)(O)O)[C@@H](O)[C@H]1O [Adenosine 5′-diphosphate]
D. castellii phytase [1]; substrate 4 mM
  % activity: 120%

## Nc1ncnc2c1ncn2[C@@H]1O[C@H](COP(=O)(O)O)[C@@H](O)[C@H]1O [Adenosine 5′-monophosphate]
D. castellii phytase [1]; substrate 4 mM
  % activity: 50%

## Nc1ncnc2c1ncn2[C@@H]1O[C@H](COP(=O)(O)OP(=O)(O)OP(=O)(O)O)[C@@H](O)[C@H]1O [Adenosine 5′-triphosphate]
D. castellii phytase [1]; substrate 4 mM
  % activity: 133%

## O=C[C@@H](O)[C@H](O)[C@H](O)CO [Arabinose, arabinose]
[4]; [11]
  activity after 1 h at 20° C.: 90
  activity after 1 h at 66.5° C.: 36

## [Ca+2].[Cl-].[Cl-] [CaCl2]
D. castellii phytase [2]; [12]
  % activity: 90%
[4]; [13]
  activity after 1 h at 20° C.: 100
  activity after 1 h at 66.5° C.: 1

## [Cl-].[Cl-].[Co+2] [CoCl2]
D. castellii phytase [2]
  % activity: 42.3%

## [Cl][Cr][Cl] [CrCl2]
D. castellii phytase [2]; [12]
  % activity: 107.6%

## [Cl][Cu][Cl] [CuCl2]
D. castellii phytase [2]; [12]
  % activity: 66.6%
[5]
  effect on phytase activity: sensitive

## O=C(O)C(O)COP(=O)(O)O (stereo not drawn) [D(−)3-phosphoglyceric acid]
D. castellii phytase [1]; substrate 4 mM
  % activity: 95%

## O=C(O)CN(CCN(CC(=O)O)CC(=O)O)CC(=O)O [EDTA]
D. castellii phytase [2]
  % activity: 104.5%

## [Cl][Fe]([Cl])[Cl] [FeCl3]
D. castellii phytase [2]; [12]
  % activity: 92%

## O=C(CO)[C@@H](O)[C@H](O)[C@H](O)COP(=O)(O)O [Fructose-6-phosphate]
D. castellii phytase [1]; substrate 4 mM
  % activity: 35%

## O=C[C@H](O)[C@@H](O)[C@H](O)[C@H](O)COP(=O)(O)O [Glucose-6-phosphate]
D. castellii phytase [1]; substrate 4 mM
  % activity: 82%

## OCC(O)CO [Glycerol, glycerol]
[4]; [11]
  activity after 1 h at 20° C.: 96
  activity after 1 h at 66.5° C.: 56

## [Cl][Hg][Cl] [HgCl2]
D. castellii phytase [2]; [12]
  % activity: 96.2%

## O=P(O)(O)OC1[C@H](O)[C@H](O)C(O)[C@H](O)[C@H]1O (stereo partly shown) [Ins(1)P1]
D. castellii phytase [6]; substrate 1 mM
  % activity: 58%

## O=P(O)(O)O[C@H]1[C@H](O)[C@@H](O)[C@H](OP(=O)(O)O)[C@@H](O)[C@H]1O [Ins(1,4)P2]
D. castellii phytase [6]; substrate 0.1 mM
  % activity: 65%

## O=P(O)(O)O[C@@H]1[C@H](O)[C@H](O)[C@@H](OP(=O)(O)O)[C@H](OP(=O)(O)O)[C@H]1O [Ins(1,4,5)P3]
D. castellii phytase [6]; substrate 0.1 mM
  % activity: 56%

## O=P(O)(O)OC1[C@@H](O)[C@H](O)C(O)[C@H](O)[C@H]1O (stereo partly shown) [Ins(2)P1]
D. castellii phytase [6]; substrate 1 mM
  % activity: 84%

## OC[C@H]1O[C@@H](O[C@H]2[C@H](O)[C@@H](O)C(O)O[C@@H]2CO)[C@H](O)[C@@H](O)[C@H]1O (stereo partly shown) [Lactose, lactose]
[4]; [11]
  activity after 1 h at 20° C.: 95
  activity after 1 h at 66.5° C.: 47

## [Cl-].[Cl-].[Mg+2] [MgCl2]
D. castellii phytase [2]; [12]
  % activity: 68.7%

## [Cl][Mn][Cl] [MnCl2]
D. castellii phytase [2]
  inhibition of phytase activity: 72%
D. castellii phytase [2]; [12]
  % activity: 28.8%

## O=C1CCC(=O)N1Br [N-bromosuccinimide]
D. castellii phytase [2]; effector 0.1 and 1 mM, phytate control = 100
  % activity: 1%
D. castellii phytase [2]; inhibitors tested, see Table 3
  effect on phytase activity: completely inhibits
[3]
  effect on the phytase activity (in words): completely inhibits the phytase activity

## C=C(OP(=O)(O)O)C(=O)O [Phospho(enol)pyruvate]
D. castellii phytase [1]; substrate 4 mM
  % activity: 130%

## O=P(O)(O)O[C@H]1[C@H](OP(=O)(O)O)[C@@H](OP(=O)(O)O)[C@H](OP(=O)(O)O)[C@@H](OP(=O)(O)O)[C@H]1OP(=O)(O)O [Phytic acid, myo-inositol hexakisphosphate]
D. castellii phytase [1]; substrate 9 mM (control)
  % activity: 100%
D. castellii phytase [6]; substrate 9 mM (control)
  % activity: 91%

## O=P(O)(O)O[C@H]1[C@H](OP(=O)(O)O)[C@@H](OP(=O)(O)O)[C@H](OP(=O)(O)O)[C@@H](OP(=O)(O)O)[C@H]1OP(=O)(O)O [Sodium phytate, sodium phytate]
D. castellii phytase [7]
  Vm: 35.8 µmol/min/mg
[8]; phytate compared with p-NPP
  affinity (in words): greater affinity

## OC[C@H]1O[C@@](CO)(O[C@H]2O[C@H](CO)[C@@H](O)[C@H](O)[C@H]2O)[C@@H](O)[C@@H]1O [Sucrose, sucrose]
[4]; [11]
  activity after 1 h at 20° C.: 97
  activity after 1 h at 66.5° C.: 57

## OC[C@H]1O[C@H](O[C@H]2O[C@H](CO)[C@@H](O)[C@H](O)[C@H]2O)[C@H](O)[C@@H](O)[C@@H]1O [Trehalose, trehalose]
[4]; [11]
  activity after 1 h at 20° C.: 94
  activity after 1 h at 66.5° C.: 56

## [Cl-].[Cl-].[Zn+2] [ZnCl2]
D. castellii phytase [2]; [12]
  % activity: 57%
[5]
  effect on phytase activity: sensitive

## O=P(O)(O)O[C@H]1[C@H](OP(=O)(O)O)[C@@H](OP(=O)(O)O)[C@H](OP(=O)(O)O)[C@@H](OP(=O)(O)O)[C@H]1OP(=O)(O)O [calcium phytate]
[9]; calcium phytate versus pNPP
  affinity of the phytase relative to p-nitrophenyl phosphate (pNPP): 4 times

## II [iodine]
D. castellii phytase [2]
  % activity: 25.6%
  inhibition of phytase activity: 75%

## O=C(O)CI [iodoacetic acid]
D. castellii phytase [2]
  % activity: 100%
  effect on phytase activity: does not cause any inhibition; also recorded: absence of effect
[3]
  effect on the phytase activity (in words): does not cause any inhibition of the activity

## O=[N+]([O-])c1ccc(OP(=O)(O)O)cc1 [pNPP, p-nitrophenyl phosphate]
D. castellii phytase [7]
  Km: 2270 µM
  Vm: 30.9 µmol/min/mg
[9]; 37° C., pH 4 for sodium phytate, pH 5.5 for p-NPP
  Km: 2270 µM
[8]; recombinant enzyme, Lineweaver-Burk, 37° C., pH 4 for sodium phytate, pH 5.5 for p-NPP
  Km: 2050 µM
D. castellii phytase [1]; substrate 4 mM
  % activity: 135%
Recombinant phytase
  Km: 2050 µM
  Vm: 274.6 U/mg

## N[C@@H](Cc1c[nH]c2ccccc12)C(=O)O [tryptophan]
[3]
  effect on the phytase activity (in words): re-establishes the activity

B1: Debaryomyces castellii CBS 2923 phytase, native (wild type), SEQ ID No. 2 (Schwanniomyces capriottii) (protein)
chain: VSVSKLINNGLLLVGQGAYQDLASPQQASVEQYNIIRFLGGAAPYIQNKGFGISTDIPDQCTLEQVQLFSRHGERYPSTGSGKKYKAVYEKLMSYNGTFKGELAFLNDDYEYFVPDSVYLEKETSPKNSDSIYAGTTDAMKHGIAFRTKYGELFDTNDTLPVFTSNSGRVYQTSQYFARGFMGDDFSNDTVKTNIISEDADMGANSLTPRDGCFNYNENANTAIVDEYTTEYLTKALNRFKASNPGLNITEDDVSNLFGYCAYELNVKGASPMCDIFTNEEFIQYSYSVDLDDYYSNSAGNNMTRVIGSTLLNASLELLNHDKNENKIWLSFTHDTDIEIFHSAIGILIPDEDLPVDYTPFPSPYSHVGITPQGARTIIEKYACGNESYVRYVINDAVIPIKKCSSGPGFSCNLNDYNDYVAERVAGTNYVEQCGNNNASAVTFYWDYETTNYTASLINS
[10]; [14]
  Km: 532 µM
  Vmax: 35.8 µmol/min/mg

B2: recombinant Debaryomyces castellii CBS 2923 phytase (recPhyt, expressed in Pichia pastoris), SEQ ID No. 2 (Schwanniomyces capriottii) (protein)
chain: MVSVSKLINNGLLLVGQGAYQDLASPQQASVEQYNIIRFLGGAAPYIQNKGFGISTDIPDQCTLEQVQLFSRHGERYPSTGSGKKYKAVYEKLMSYNGTFKGELAFLNDDYEYFVPDSVYLEKETSPKNSDSIYAGTTDAMKHGIAFRTKYGELFDTNDTLPVFTSNSGRVYQTSQYFARGFMGDDFSNDTVKTNIISEDADMGANSLTPRDGCFNYNENANTAIVDEYTTEYLTKALNRFKASNPGLNITEDDVSNLFGYCAYELNVKGASPMCDIFTNEEFIQYSYSVDLDDYYSNSAGNNMTRVIGSTLLNASLELLNHDKNENKIWLSFTHDTDIEIFHSAIGILIPDEDLPVDYTPFPSPYSHVGITPQGARTIIEKYACGNESYVRYVINDAVIPIKKCSSGPGFSCNLNDYNDYVAERVAGTNYVEQCGNNNASAVTFYWDYETTNYTASLINS
[10]; 37.0 °C
  Km: 240 µM
  Vmax: 137.8 U/mg
